# Key:
# [1] = test system: Human immunodeficiency virus 1; assay: (§1) Antiviral activity against HIV-1 NL4-3 infected in human TZM-bl cells infected with supernatants from virus-infected human H9 cells treated with compound for 72 hrs assessed as reduction in luciferase expression measured after 48 hrs by luciferase reporter gene assay based BiCycle assay; assay type: functional, organism-based; conditions: Human immunodeficiency virus 1, NL4-3
# [2] = biological target: ATP-dependent RNA helicase DDX3X (Homo sapiens, UniProt O00571); assay: Inhibition of human DDX3X using dsRNA as substrate measured every 30 sec for 40 mins by FRET assay
# Chain of ATP-dependent RNA helicase DDX3X (O00571 whole entry): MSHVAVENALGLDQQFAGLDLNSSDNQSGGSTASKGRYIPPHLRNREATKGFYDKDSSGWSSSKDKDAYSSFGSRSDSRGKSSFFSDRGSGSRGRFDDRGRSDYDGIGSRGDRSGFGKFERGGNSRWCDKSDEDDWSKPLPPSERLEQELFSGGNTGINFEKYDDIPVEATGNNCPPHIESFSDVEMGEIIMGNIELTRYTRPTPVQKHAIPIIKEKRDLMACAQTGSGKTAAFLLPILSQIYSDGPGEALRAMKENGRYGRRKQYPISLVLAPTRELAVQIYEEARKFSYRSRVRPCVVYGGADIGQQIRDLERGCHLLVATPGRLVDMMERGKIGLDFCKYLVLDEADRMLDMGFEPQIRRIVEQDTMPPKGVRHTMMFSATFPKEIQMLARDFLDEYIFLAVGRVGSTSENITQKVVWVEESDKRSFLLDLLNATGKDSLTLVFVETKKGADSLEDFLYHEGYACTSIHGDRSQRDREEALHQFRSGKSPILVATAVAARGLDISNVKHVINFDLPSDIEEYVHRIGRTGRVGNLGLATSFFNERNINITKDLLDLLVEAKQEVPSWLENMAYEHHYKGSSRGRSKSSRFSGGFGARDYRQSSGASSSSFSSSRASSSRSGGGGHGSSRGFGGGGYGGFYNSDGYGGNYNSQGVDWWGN
# [3] = Apparent permeability of compound incubated for 5 hrs by PAMPA assay; assay type: ADME
# [4] = Metabolic stability in human liver microsomes assessed as parent compound remaining measured after 60 mins by LC-UV-MS analysis; assay type: ADME, Microsome; conditions: read-out: Stabilty
# [5] = AUC (0 to t) in BALB/c mouse at 16 mg/kg, iv measured upto 24 hrs by HPLC-MS analysis; assay type: ADME, organism-based; design: route intravenous, dose 16 mg/kg, time <=24; conditions: in vivo
# [6] = Observed AUC (0 to infinity) in BALB/c mouse at 32 mg/kg, iv measured upto 24 hrs by HPLC-MS analysis; assay type: ADME, organism-based; design: route intravenous, dose 32 mg/kg, time <=24; conditions: in vivo
# [7] = Toxicity in BALB/c mouse assessed as effect on kidney at 32 mg/kg, iv administered three times a week for 3 weeks by hematoxylin and eosin staining based microscopic imaging analysis; assay type: organism-based; conditions: in vivo, 504 h
# [8] = Observed AUC (0 to infinity) in BALB/c mouse at 16 mg/kg, iv measured upto 24 hrs by HPLC-MS analysis; assay type: ADME, organism-based; design: route intravenous, dose 16 mg/kg, time <=24; conditions: in vivo
# [9] = Toxicity in BALB/c mouse assessed as effect on brain at 32 mg/kg, iv administered three times a week for 3 weeks by hematoxylin and eosin staining based microscopic imaging analysis; assay type: organism-based; conditions: in vivo, 504 h
# [10] = Half life in BALB/c mouse at 32 mg/kg, iv measured upto 24 hrs by HPLC-MS analysis; assay type: ADME, organism-based; conditions: in vivo
# [11] = AUC (0 to t) in BALB/c mouse at 32 mg/kg, iv measured upto 24 hrs by HPLC-MS analysis; assay type: ADME, organism-based; design: route intravenous, dose 32 mg/kg, time <=24; conditions: in vivo
# [12] = (§2) Selectivity index, ratio of IC50 for antiviral activity against HIV-1 11808 harboring protease V32I/I54V/I84V/L90M mutant infected in human TZM-bl cells infected with supernatants from virus-infected human H9 cells to IC50 for antiviral activity against HIV-1 […] infected in human TZM-bl cells infected with supernatants from virus-infected human H9 cells; assay type: functional, Human immunodeficiency virus 1
# [13] = Cmax in BALB/c mouse at 16 mg/kg, iv measured upto 24 hrs by HPLC-MS analysis; assay type: ADME, organism-based; design: route intravenous, dose 16 mg/kg, time <=24; conditions: in vivo
# [14] = Observed volume of distribution at steady state in BALB/c mouse at 16 mg/kg, iv measured upto 24 hrs by HPLC-MS analysis; assay type: ADME, organism-based; conditions: in vivo, read-out: Vdss
# [15] = test system: Human immunodeficiency virus 1; assay: as §1, with “12231 harboring non-nucleoside reverse transcriptase K103N/V179F/Y181C mutant” for “NL4-3”; assay type: functional, organism-based; conditions: Human immunodeficiency virus 1, 12231
# [16] = Toxicity in BALB/c mouse assessed as effect on liver at 32 mg/kg, iv administered three times a week for 3 weeks by hematoxylin and eosin staining based microscopic imaging analysis; assay type: organism-based; conditions: in vivo, 504 h
# [17] = Drug uptake in BALB/c mouse spleen at 16 to 32 mg/kg, iv measured upto 24 hrs; assay type: ADME, organism-based; conditions: in vivo, dose 16-32 mg/kg
# [18] = Plasma concentration in BALB/c mouse at 16 to 32 mg/kg, iv measured after 240 mins; assay type: ADME, organism-based; conditions: dose 16-32 mg/kg
# [19] = Observed clearance in BALB/c mouse at 16 mg/kg, iv measured upto 24 hrs by HPLC-MS analysis; assay type: ADME, organism-based; conditions: in vivo
# [20] = AUC (0 to t) in BALB/c mouse at 8 mg/kg, iv measured upto 24 hrs by HPLC-MS analysis; assay type: ADME, organism-based; design: route intravenous, dose 8 mg/kg, time <=24; conditions: in vivo
# [21] = as §2, with “12231” for “11808”, “non-nucleoside reverse transcriptase K103N/V179F/Y181C” for “protease V32I/I54V/I84V/L90M”; assay type: functional, Human immunodeficiency virus 1
# [22] = Drug uptake in BALB/c mouse brain at 16 to 32 mg/kg, iv measured upto 24 hrs; assay type: ADME, organism-based; conditions: in vivo, dose 16-32 mg/kg
# [23] = test system: Human immunodeficiency virus 1; assay: as §1, with “11808 harboring protease V32I/I54V/I84V/L90M mutant” for “NL4-3”; assay type: functional, organism-based; conditions: Human immunodeficiency virus 1, 11808
# [24] = Toxicity in BALB/c mouse assessed as organism death at 32 mg/kg, iv administered three times a week for 3 weeks; assay type: organism-based; conditions: in vivo, 504 h
# [25] = test system: Human immunodeficiency virus 1; assay: as §1, with “7400 harboring nucleos(t)ide reverse transcriptase M41L/E44D/D67N/T69D/M184VL210W/T215Y mutant” for “NL4-3”; assay type: functional, organism-based; conditions: Human immunodeficiency virus 1, 7400
# [26] = Drug excretion in BALB/c mouse at 16 to 32 mg/kg, iv measured upto 24 hrs; assay type: ADME, organism-based; conditions: in vivo, dose 16-32 mg/kg, read-out: Drug excretion
# [27] = Half life in BALB/c mouse at 16 mg/kg, iv measured upto 24 hrs by HPLC-MS analysis; assay type: ADME, organism-based; conditions: in vivo
# [28] = as §2, with “7400” for “11808”, “nucleos(t)ide reverse transcriptase M41L/E44D/D67N/T69D/M184VL210W/T215Y” for “protease V32I/I54V/I84V/L90M”; assay type: functional, Human immunodeficiency virus 1
# [29] = Toxicity in BALB/c mouse assessed as reduction in body weight at 32 mg/kg, iv administered three times a week for 3 weeks; assay type: organism-based; conditions: in vivo, 504 h
# [30] = Cmax in BALB/c mouse at 32 mg/kg, iv measured upto 24 hrs by HPLC-MS analysis; assay type: ADME, organism-based; design: route intravenous, dose 32 mg/kg, time <=24; conditions: in vivo
# [31] = test system: Human immunodeficiency virus 1; assay: as §1, with “11847 harboring integrase G140S/Q148H mutant” for “NL4-3”; assay type: functional, organism-based; conditions: Human immunodeficiency virus 1, 11847
# [32] = as §2, with “11847” for “11808”, “integrase G140S/Q148H” for “protease V32I/I54V/I84V/L90M”; assay type: functional, Human immunodeficiency virus 1
# [33] = Observed clearance in BALB/c mouse at 8 mg/kg, iv measured upto 24 hrs by HPLC-MS analysis; assay type: ADME, organism-based; conditions: in vivo
# [34] = Tmax in BALB/c mouse at 16 to 32 mg/kg, iv measured upto 24 hrs; assay type: ADME, organism-based; conditions: in vivo, dose 16-32 mg/kg
# [35] = Half life in BALB/c mouse at 8 mg/kg, iv measured upto 24 hrs by HPLC-MS analysis; assay type: ADME, organism-based; conditions: in vivo
# [36] = Observed volume of distribution at steady state in BALB/c mouse at 8 mg/kg, iv measured upto 24 hrs by HPLC-MS analysis; assay type: ADME, organism-based; conditions: in vivo, read-out: Vdss
# [37] = Plasma concentration in BALB/c mouse at 16 to 32 mg/kg, iv measured after 24 hrs; assay type: ADME, organism-based; conditions: dose 16-32 mg/kg
# [38] = Observed AUC (0 to infinity) in BALB/c mouse at 8 mg/kg, iv measured upto 24 hrs by HPLC-MS analysis; assay type: ADME, organism-based; design: route intravenous, dose 8 mg/kg, time <=24; conditions: in vivo
# [39] = Cmax in BALB/c mouse at 8 mg/kg, iv measured upto 24 hrs by HPLC-MS analysis; assay type: ADME, organism-based; design: route intravenous, dose 8 mg/kg, time <=24; conditions: in vivo
smiles,measurement,setting,value
CCCCc1cn(-c2ccc(NC(=O)Nc3ccccc3C)cc2)nn1,IC50,[1],1110 nM
CCCCc1cn(-c2ccc(NC(=O)Nc3cc(O[C@H]4O[C@@H](CO)[C@H](O)[C@@H]4O)ccc3C)cc2)nn1,IC50,[2],Not Active
same,IC50,[1],> 50000 nM
CCOP(=O)(OCC)OCCc1cn(-c2ccc(NC(=O)Nc3ccccc3C)cc2)nn1,Papp at 5 h,[3],0.72 ×10⁻⁶ cm/s
same,IC50,[1],> 50000 nM
same,remaining at 1 h,[4],53.7%
CCCCc1cn(-c2ccc(NC(=O)Nc3cc(O)ccc3C)cc2)nn1,IC50,[2]; read-out: IC50,490 nM
CCCCc1cn(-c2ccc(NC(=O)Nc3cc(OCOC)ccc3C)cc2)nn1,IC50,[2]; read-out: IC50,820 nM
CCCCc1cn(-c2ccc(NC(=O)Nc3cc(OC4CCCC4)ccc3C)cc2)nn1,Papp at 5 h,[3],1.96 ×10⁻⁶ cm/s
same,IC50,[2]; read-out: IC50,140 nM
same,IC50,[1],200 nM
same,remaining at 1 h,[4],92.5%
Cc1ccccc1NC(=O)Nc1ccc(-n2cc(CCN3CCOCC3)nn2)cc1,IC50,[2]; read-out: IC50,59700 nM
CCCCc1cn(-c2ccc(NC(=O)Nc3cccc4cnccc34)cc2)nn1,Papp at 5 h,[3],< 0.1 ×10⁻⁶ cm/s
same,IC50,[2]; read-out: IC50,150 nM
same,IC50,[1],2200 nM
same,remaining at 1 h,[4],95.2%
Cc1ccccc1NC(=O)Nc1ccc(-n2cc(CN3CCOCC3)nn2)cc1,IC50,[2],Not Active
Cc1ccccc1NC(=O)Nc1ccc(-n2cc(CCCN3CCOCC3)nn2)cc1,IC50,[2]; read-out: IC50,53800 nM
CCCCc1cn(-c2ccc(NC(=O)Nc3cc(CCC(C)=O)ccc3C)cc2)nn1,IC50,[2]; read-out: IC50,2490 nM
CC(C)CCc1cn(-c2ccc(NC(=O)Nc3cccc4cnccc34)cc2)nn1,AUC(0-t) at 24 h,[5],23700 ng·h/mL
same,AUC,[6],6114.4 µg·min/mL
same,Papp at 5 h,[3],0.18 ×10⁻⁶ cm/s
same,Activity,[7],Non-Toxic
same,AUC(0-inf),[8],25700 ng·h/mL
same,Activity,[9],Non-Toxic
same,t1/2,[10],4.682 h
same,AUC(0-t) at 24 h,[11],98500 ng·h/mL
same,Ratio IC50,[12],1.1
same,Cmax,[13],15800 ng/mL
same,Vd,[14],7 L/kg
same,IC50,[15],1800 nM
same,Activity,[16],Non-Toxic
same,Drug uptake,[17],Active
same,concentration at 4 h,[18],10 µM
same,clearance,[19],8 mL/min/kg
same,IC50,[2]; read-out: IC50,120 nM
same,AUC(0-t) at 24 h,[20],25600 ng·h/mL
same,Ratio IC50,[21],0.8
same,Drug uptake,[22],Not Active
same,IC50,[23],2300 nM
same,Activity,[24],Non-Toxic
same,IC50,[25],1800 nM
same,dose excreted at 24 h,[26],100%
same,half-life,[27],7.76 h
same,IC50,[1],2100 nM
same,Ratio IC50,[28],0.8
same,Activity,[29],Non-Toxic
same,Cmax,[30],44400 ng/mL
same,IC50,[31],1500 nM
same,Ratio IC50,[32],0.7
same,clearance,[33],4.3 mL/min/kg
same,remaining at 1 h,[4],89.7%
same,Tmax,[34],1 h
same,half-life,[35],8.97 h
same,Vd,[36],3.4 L/kg
same,concentration at 24 h,[37],2 µM
same,AUC(0-inf),[38],30700 ng·h/mL
same,Cmax,[39],5500 ng/mL
Cc1ccccc1NC(=O)Nc1ccc(-n2cc(CCO)nn2)cc1,IC50,[2]; read-out: IC50,13000 nM
COCCc1cn(-c2ccc(NC(=O)Nc3ccccc3C)cc2)nn1,remaining at 1 h,[4],94.2%
O=C(Nc1ccc(-n2cc(CCO[C@H]3O[C@@H](CO)[C@H](O)[C@@H]3O)nn2)cc1)Nc1ccccc1C(F)(F)F,IC50,[2],Not Active
CC(C)CC(=O)OCCc1cn(-c2ccc(NC(=O)Nc3ccccc3C(F)(F)F)cc2)nn1,Papp at 5 h,[3],4.24 ×10⁻⁶ cm/s
same,IC50,[1],> 50000 nM
same,remaining at 1 h,[4],49.3%
O=C(Nc1ccc(-n2cc(CCO)nn2)cc1)Nc1ccccc1C(F)(F)F,IC50,[2]; read-out: IC50,11200 nM
same,IC50,[1],> 50000 nM
CCCCc1cn(-c2ccc(NC(=O)Nc3cc(OP(=O)(OCC)OCC)ccc3C)cc2)nn1,Papp at 5 h,[3],0.68 ×10⁻⁶ cm/s
same,IC50,[2]; read-out: IC50,940 nM
same,IC50,[1],5500 nM
same,remaining at 1 h,[4],85.2%
CCOCc1cn(-c2ccc(NC(=O)Nc3cc(C(C)C)ccc3C)cc2)nn1,IC50,[2]; read-out: IC50,1510 nM
same,IC50,[1],3800 nM
CCCCc1cn(-c2ccc(NC(=O)Nc3cc(OC4CCOC4)ccc3C)cc2)nn1 (centres undefined),IC50,[2]; read-out: IC50,100 nM
same,IC50,[1],2600 nM
CCOC(=O)CCc1cn(-c2ccc(NC(=O)Nc3ccccc3C(F)(F)F)cc2)nn1,Papp at 5 h,[3],1.56 ×10⁻⁶ cm/s
same,IC50,[2]; read-out: IC50,2020 nM
same,IC50,[1],> 50000 nM
same,remaining at 1 h,[4],16.9%
